From patent US20160287553A1, “TRANSLATION INHIBITORS IN HIGH-DOSE CHEMO- AND/OR HIGH-DOSE RADIOTHERAPY” (DEUTSCHES KREBSFORSCHUNGSZENTRUM, priority 2013, published 2016)
“Also recorded” adds a separate entry of the source.

What was measured:
[1] = test system: IM-9 (Chronic myeloid leukemia), WT p53; test: Etoposide-induced cell death in IM-9; assay type: cell-based, human; details: IM-9 (FIG. 5b)
Method: (§1) DNA fragmentation was determined by FACS.
(§2) Since Roc-A-mediated protection of non-malignant cells from DNA-damage-induced cell death is largely p53-dependent, we predicted that Roc-A would not protect cancer cells which have non-functional p53. […] 1997; 19: 243-253), Reh (Zhou et al, loc cit.), SKW6.4 (Barbarotto et al., J Cell Biochem. 2008; 104: 595-605) and NCI-H209 (Fujita et al. Int J Oncol. 1999; 15: 927-934) which have a WT p53 protein.

[2] = test system: Hut-78 (T cell lymphoma), p53 mutated; test: Etoposide-induced cell death in Hut-78; assay type: cell-based, human; details: Hut-78 (FIG. 5a)
Method: as §1, §2

[3] = test system: Splenocytes from p53-/- mice; test: Etoposide-induced cell death in p53 knock-out splenocytes; assay type: cell-based, mouse; details: p53-KO splenocytes, 50 μM Etoposide, 75 nM Roc-A (FIG. 4b)
Method: as §1
P53^−/− C57B1/6 mice (B6.Trp53tm1Tyj) were kindly provided by Liu H-K (German Cancer Research Center, Heidelberg, Germany). Spleens of 8-12 week old p53^−/−, and p53^+/+ mice were isolated in parallel, minced and incubated for 30 min in RPMI-1640 medium supplemented with DNase I (50 U/ml) and Collagenase IV (1 mg/ml) at 37° C. and 5% CO2. Splenocytes were filtered by […] cell strainer, washed twice with ice-cold wash buffer (PBS, 0.5% FCS, 2 mM EDTA) and resuspended in Oxford medium (RPMI 1640, 10% FCS, 100 μg/ml Penicillin, 100 μg/ml Streptamycin, 10 mM Hepes, 50 μM β-Mercaptoethanol, 2 mM L-glutamine, 1 mM sodium pyruvate, 100 μM non-essential amino acids) at a concentration of 2×10^6 cells/ml.
To further investigate the role of p53 in Roc-A-mediated protection of T cells against DNA damage-induced apoptosis, we performed a p53 knock-down experiment using a siRNA approach (FIG. 4a, upper panel). […] Therefore, we examined the effect of Roc-A on p53 knock-out (KO) cells.

Peripheral blood T cells = test: Teniposide-, Doxorubicin- and Bleomycin-induced apoptotic cell death in T cells; assay type: cell-based, human; details: Roc-A 75 nM; increasing doses of the drugs (FIG. 1b)
Method: as §1
(§3) The radioprotective effect mediated by Roc-A was the highest when cells were treated with Roc-A 1 h before radiation of cells (FIG. 1d). However, when cells were treated 4 h after radiation, the radioprotective effect was still higher than 50% (FIG. 1d).

[4] = test system: SKW6.4 (B cell leukemia), WT p53; test: Etoposide-induced cell death in SKW6.4; assay type: cell-based, human; details: SKW6.4 (FIG. 5b)
Method: as §1, §2

Primary human T cells = test: Ionizing radiation (IR)-induced apoptosis in T cells; assay type: cell-based
Method: as §1, §3

ERK = details: Polier et al., op. cit.; cited from earlier work
[5] = test system: murine hematopoietic stem and progenitor cells (HSPCs); test: Etoposide-induced apoptosis in hematopoietic stem and progenitor cells; assay type: cell-based, mouse; details: HSPCs (FIG. 1c)
Method: as §1
To perform lineage depletion, bone marrow cells were incubated on ice for 40 minutes with rat monoclonal antibodies against common epitopes expressed on mature blood and bone marrow cells (CD11b (M1/70), Gr-1 (RB6.8C5), CD4 (GK1.5), CD8a (53.6.7), Ter119 (Ter119) and B220 (RA3-6B2)). Subsequently, cells were washed and incubated for 15 minutes on ice with anti-rat IgG-coated Dynabeads (4.5 μm supermagnetic polystyrene beads, Invitrogen), 1 ml of beads per 3×10^8 bone marrow cells. Cells expressing lineage markers were depleted using a magnet and the remaining lineage-negative cells were isolated and washed. To provide optimal conditions for HSPCs in downstream experiments lineage-negative hematopoietic stem and progenitor-enriched cells were cultured in StemPro®-34 serum-free medium (Invitrogen, Darmstadt, Germany) supplemented with nutrient supplement (Invitrogen, Darmstadt, Germany) as well as recombinant TPO (50 ng/ml, (Peprotech, Hamburg, Germany)), SCF (50 ng/ml, (Peprotech, Hamburg, Germany)) and Flt3-ligand (50 ng/ml, (Peprotech, Hamburg, Germany)).
Next, we asked whether Roc-A could also protect other normal primary cells from DNA damage-induced toxicity. […]

neutrophils = test: Etoposide-induced apoptosis in neutrophils; assay type: cell-based, human; details: neutrophils (FIG. 1c)
Method: as §1
(§4) Next, we asked whether Roc-A could also protect other normal primary cells from DNA damage-induced toxicity. To address this question, we examined the protective effect of Roc-A on Etoposide-treated human peripheral blood B cells, NK cells, neutrophils, cardiomyocytes and murine hematopoietic stem and progenitor cells (HSPCs).

non-malignant cells = test: Fold change in cell death on raising the Etoposide dose, non-malignant cells (FIG. 9a-b); assay type: cell-based; details: 75 nM Roc-A in parallel to Etoposide, 6.25 μM to 50 μM, 24 h
Method: (a) Cells from (b) were grouped into malignant and non-malignant cells. Shown are means of three independent experiments. Abbreviations; HSPCs=hematopoietic stem and progenitor cells. (c-d) Malignant and non-malignant cells were exposed to ionizing radiation (IR) in the presence of 75 nM Roc-A or solvent (DMSO) and cell death was determined after 24 h by DNA fragmentation. Depicted is the fold-change in cell death that was measured when doses of IR were increased from 2 Gy to 10 Gy. (c) Cells from (d) were grouped into malignant and non-malignant cells. Shown are means of three independent experiments.
as §1
Roc-A specifically prevents the cause of chemotherapeutic and radiation-induced side-effects, i.e., the death of healthy cells. […] Consequently, high-dose therapy is not possible, as side effects would be too high.

γ-H2AX = assay type: cell-based; details: Roc-A 75 nM, T cells (FIG. 2a-b)
Method: DNA damage was determined by quantification of γ-H2AX foci formation and by alkaline single-cell gel electrophoresis assay (comet assay). For γ-H2AX staining, cells were treated as indicated, fixed in 3% formaldehyde and permeabilized in 90% methanol. Following storage at −20° C. overnight, cells were incubated with mouse serum to block unspecific binding and stained with antibody directed against γ-H2AX (AlexaFluor 488-coupled, 2F3 [BioLegend, Fell, Germany]), or with isotype control antibody (AlexaFluor 488-coupled [BioLegend, Fell, Germany]). The amount of γ-H2AX foci formation was determined by FACS measurement. […] Nuclei were stained with DAPI mounting medium (Dianova, Hamburg, Germany). Comet assays were carried out as previously described (Greve et al., PloS one. 2012; 7: e47185). Briefly, electrophoresis of cellular genomic DNA was performed under alkaline conditions at 4° C. The amount of DNA damage was measured by “Olive Tail Moment”. Analysis of cellular DNA damage was carried out by fluorescence microscopy, using a fully automated cell scanning system Metafer-4 (Metasystems, Altlutβheim, Germany).
To address this question, we determined the level of the DNA-damage marker γ-H2AX, which is generated around the site of a DNA double-strand break (Rogakou et al., J Biol Chem. 1998; 273: 5858-5868).

[6] = test system: HL-60 (promyelocytic leukemia), p53-deficient; test: Etoposide-induced cell death in HL-60; assay type: cell-based, human; details: HL-60 (FIG. 5a)
Method: as §1, §2

[7] = test system: human peripheral blood B cells; test: Etoposide-induced apoptosis in B cells; assay type: cell-based; details: B cells (FIG. 1c)
Method: as §1, §4

COc1ccc([C@@]23Oc4cc(OC)cc(OC)c4[C@]2(O)[C@H](O)[C@H](C(=O)N(C)C)[C@H]3c2ccccc2)cc1 [Roc-A, (1R,2R,3S,3aR,8bS)-1,8b-dihydroxy-6,8-dimethoxy-3a-(4-methoxyphenyl)-N,N-dimethyl-3-phenyl-2,3-dihydro-1H-cyclopenta[b][1]benzofuran-2-carboxamide]
Protection against Etoposide-induced cell death [1]: protected by Roc-A from Etoposide-induced cell death but to a lesser extent than non-malignant cells
Protection against Etoposide-induced cell death [2]: did neither protect
Protection against Etoposide-induced cell death [3]: abolished; also recorded: not statistically significant
Drug-induced apoptosis (Teniposide, Doxorubicin, Bleomycin) (Peripheral blood T cells): reduces Teniposide-, Doxorubicin- and Bleomycin-induced apoptotic cell death in T cells; also recorded: could reduce drug-induced apoptosis in all cases
Protection against Etoposide-induced cell death [4]: protected by Roc-A from Etoposide-induced cell death but to a lesser extent than non-malignant cells
Radioprotective effect by time of Roc-A addition (Primary human T cells; Roc-A 1 h before radiation (10 Gy) (FIG. 1d)): highest
Radioprotective effect (percent of protection from IR-induced apoptosis) (Primary human T cells; Roc-A 4 h after radiation (10 Gy) (FIG. 1d)): higher than 50%
Ionizing radiation-induced apoptosis in T cells (Primary human T cells; increasing doses of IR, different concentrations of Roc-A, 24 h (FIG. 1e)): reduced ionizing radiation-induced apoptosis in T cells
Inhibitory effect on ERK activity / activation (ERK): inhibit ERK activation with different efficacies
Protection against Etoposide-induced apoptosis [5]: protected
Protection against Etoposide-induced apoptosis (neutrophils): protected
Change in cell death on increased Etoposide doses with Roc-A (non-malignant cells): only resulted in increased cell death in malignant cells
Effect on Etoposide-induced γ-H2AX foci formation (γ-H2AX): does not prevent Etoposide-induced increase in γ-H2AX; also recorded: did not block Etoposide-induced γ-H2AX foci formation
Protection against Etoposide-induced cell death [6]: did neither protect
Protection against Etoposide-induced apoptosis [7]: protected
